Laboratory results: patent US20250011368A1, “DLL3 TARGETING PEPTIDES AND CONSTRUCTS THEREOF” (MARIANA ONCOLOGY INC., priority 2023, published 2025)
Bridge positions count the residues as written; N and C are the ends. Square brackets hold non-standard residues; d marks the D form. Side chains are listed from the residue outwards. Peptide text beside a SMILES is read from it. * marks the point of attachment. ξ: configuration not given here. DOTA = O=C(O)CN1CCN(CC(=O)O)CCN(CC(=O)*)CCN(CC(=O)O)CC1; Trp(5-F) = N[C@@H](Cc1c[nH]c2ccc(F)cc12)C(=O)O; Trp(7-aza) = N[C@@H](Cc1c[nH]c2ncccc12)C(=O)O; Pro(trans-4-F) = O=C(O)[C@@H]1C[C@@H](F)CN1; 2Nal = N[C@@H](Cc1ccc2ccccc2c1)C(=O)O; ξW = NC(Cc1c[nH]c2ccccc12)C(=O)O; Thr(3ξ) = CC(O)[C@H](N)C(=O)O; Cba = N[C@@H](CC1CCC1)C(=O)O; Chg = N[C@H](C(=O)O)C1CCCCC1; PEG4 = NCCOCCOCCOCCOCCC(=O)O

Target: T1, human DLL3 (Homo sapiens, UniProt Q9NYJ7)
T1 sequence (Q9NYJ7 27-618): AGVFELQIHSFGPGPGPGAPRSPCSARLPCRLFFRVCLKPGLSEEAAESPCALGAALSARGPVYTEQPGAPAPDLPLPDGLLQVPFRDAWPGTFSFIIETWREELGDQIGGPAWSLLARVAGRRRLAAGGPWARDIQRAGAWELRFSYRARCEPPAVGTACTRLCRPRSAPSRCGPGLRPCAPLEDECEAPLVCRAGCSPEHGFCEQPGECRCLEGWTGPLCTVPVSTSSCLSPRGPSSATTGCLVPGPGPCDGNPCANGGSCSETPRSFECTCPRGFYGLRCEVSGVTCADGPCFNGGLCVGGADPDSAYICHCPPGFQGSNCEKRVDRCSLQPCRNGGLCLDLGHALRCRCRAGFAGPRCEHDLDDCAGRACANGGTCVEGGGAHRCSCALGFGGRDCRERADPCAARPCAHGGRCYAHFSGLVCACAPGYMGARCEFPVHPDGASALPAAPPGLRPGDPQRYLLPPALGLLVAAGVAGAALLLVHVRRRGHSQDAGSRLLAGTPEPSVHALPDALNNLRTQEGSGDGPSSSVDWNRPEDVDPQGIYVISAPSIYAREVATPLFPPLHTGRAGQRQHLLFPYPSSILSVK
Experiment: Affinity determination by Surface Plasmon Resonance (SPR)
Type: binding
Conditions: 25° C., biotinylated human DLL3 immobilized on streptavidin sensor chip, 1:1 binding model; read-out: SPR KD
Summary of the method: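 Kinetic and affinity constants were derived by fitting sensorgrams to a 1:1 binding model. Graded compound concentrations flowed at 100 μL/minute in 20 mM phosphate running buffer with 2% DMSO over streptavidin-immobilized biotinylated human DLL3, reference-subtracted.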

Kd	SMILES
< 1 nM	CC(=O)N[C@@H](Cc1c[nH]c2ccc(F)cc12)C(=O)N[C@H](C(=O)N[C@H](C(=O)N[C@H]1CSSC[C@@H](C(=O)N[C@@H](Cc2c[nH]c3ncccc23)C(=O)N2C[C@H](F)C[C@H]2C(=O)N[C@H](CCCCNC(=O)CN2CCN(CC(=O)O)CCN(CC(=O)O)CCN(CC(=O)O)CC2)C(N)=O)NC(=O)[C@H](CC(=O)O)NC(=O)[C@H](Cc2cnc[nH]2)NC(=O)[C@H](Cc2ccc3ccccc3c2)NC(=O)[C@H](CC(N)=O)NC(=O)[C@H](CC(N)=O)NC1=O)C1CCCCC1)[C@@H](C)O [compound 258, Ac-(5Fluoro-W)-T-(Chg)-C(3)-N-N-(2Nal)-H-D-C(3)-(7Aza-W)-(trans4Fluoro-P)-[D-Lys(DOTA)]-NH2] (Ac-[Trp(5-F)]T[Chg]CNN[2Nal]HDC[Trp(7-aza)][Pro(trans-4-F)][dK](DOTA)-NH2; disulfide 4-10)
< 1 nM	CC[C@H](C)[C@H](NC(=O)[C@@H](NC(=O)[C@H](Cc1c[nH]c2ccccc12)NC(C)=O)[C@@H](C)O)C(=O)N[C@H]1CSSC[C@@H](C(=O)N[C@@H](Cc2c[nH]c3ccccc23)C(=O)N2CCC[C@H]2C(=O)N[C@H](CCCCNC(=O)CN2CCN(CC(=O)O)CCN(CC(=O)O)CCN(CC(=O)O)CC2)C(=O)O)NC(=O)[C@H](CC(=O)O)NC(=O)[C@H](Cc2cnc[nH]2)NC(=O)[C@H](Cc2ccc3ccccc3c2)NC(=O)[C@H](CC(N)=O)NC(=O)[C@H](CC(N)=O)NC1=O [compound 262, Ac-W-T-I-C(3)-N-N-(2Nal)-H-D-C(3)-W-P-[D-Lys(DOTA)]-OH] (Ac-WTICNN[2Nal]HDCWP[dK](DOTA)-OH; disulfide 4-10)
< 1 nM	CC(=O)N[C@@H](Cc1c[nH]c2ccc(F)cc12)C(=O)N[C@H](C(=O)N[C@@H](CC1CCC1)C(=O)N[C@H]1CSSC[C@@H](C(=O)N[C@@H](Cc2c[nH]c3ncccc23)C(=O)N2C[C@H](F)C[C@H]2C(=O)N[C@@H](CCCCNC(=O)CN2CCN(CC(=O)O)CCN(CC(=O)O)CCN(CC(=O)O)CC2)C(N)=O)NC(=O)[C@H](CC(=O)O)NC(=O)[C@H](Cc2cnc[nH]2)NC(=O)[C@H](Cc2ccc3ccccc3c2)NC(=O)[C@H](CC(N)=O)NC(=O)[C@H](CC(N)=O)NC1=O)[C@@H](C)O [compound 269, Ac-(5Fluoro-W)-T-(CBA)-C(3)-N-N-(2Nal)-H-D-C(3)-(7Aza-W)-(trans4Fluoro-P)-[D-Lys(DOTA)]-NH2] (Ac-[Trp(5-F)]T[Cba]CNN[2Nal]HDC[Trp(7-aza)][Pro(trans-4-F)]K(DOTA)-NH2; disulfide 4-10)
< 1 nM	CC[C@H](C)[C@H](NC(=O)[C@@H](NC(=O)C(Cc1c[nH]c2ccccc12)NC(C)=O)C(C)O)C(=O)N[C@H]1CSSC[C@@H](C(=O)N[C@@H](Cc2c[nH]c3ccccc23)C(=O)N2CCC[C@H]2C(=O)NCCOCCOCCOCCOCCC(=O)N[C@H](CCCCNC(=O)CN2CCN(CC(=O)O)CCN(CC(=O)O)CCN(CC(=O)O)CC2)C(N)=O)NC(=O)[C@H](CC(=O)O)NC(=O)[C@H](Cc2cnc[nH]2)NC(=O)[C@H](Cc2ccc3ccccc3c2)NC(=O)[C@H](CC(N)=O)NC(=O)[C@H](CC(N)=O)NC1=O (stereo partly drawn) [compound 270, Ac-W-T-I-C(3)-N-N-(2Nal)-H-D-C(3)-W-P-PEG4-[D-Lys(DOTA)]-NH2] (Ac-[ξW][Thr(3ξ)]ICNN[2Nal]HDCWP[PEG4][dK](DOTA)-NH2; disulfide 4-10)
< 1 nM	CC[C@H](C)[C@H](NC(=O)[C@@H](NC(=O)C(Cc1c[nH]c2ccccc12)NC(C)=O)C(C)O)C(=O)N[C@H]1CSSC[C@@H](C(=O)N[C@@H](Cc2c[nH]c3ccccc23)C(=O)N2CCC[C@H]2C(=O)N[C@H](CCCCNC(=O)CCOCCOCCOCCOCCNC(=O)CN2CCN(CC(=O)O)CCN(CC(=O)O)CCN(CC(=O)O)CC2)C(N)=O)NC(=O)[C@H](CC(=O)O)NC(=O)[C@H](Cc2cnc[nH]2)NC(=O)[C@H](Cc2ccc3ccccc3c2)NC(=O)[C@H](CC(N)=O)NC(=O)[C@H](CC(N)=O)NC1=O (stereo partly drawn) [compound 271, Ac-W-T-I-C(3)-N-N-(2Nal)-H-D-C(3)-W-P-[D-Lys(PEG4-DOTA)]-NH2] (Ac-[ξW][Thr(3ξ)]ICNN[2Nal]HDCWP[dK]([PEG4-DOTA])-NH2; disulfide 4-10)
1 to 10 nM	CC[C@H](C)[C@H](NC(=O)[C@@H](NC(=O)[C@H](Cc1c[nH]c2ccccc12)NC(C)=O)[C@@H](C)O)C(=O)N[C@H]1CSSC[C@@H](C(=O)N[C@@H](Cc2c[nH]c3ccccc23)C(=O)N2CCC[C@H]2C(=O)N[C@H](CCCCNC(=O)CN2CCN(CC(=O)O)CCN(CC(=O)O)CCN(CC(=O)O)CC2)C(N)=O)NC(=O)[C@H](CC(=O)O)NC(=O)[C@H](CCC(=O)O)NC(=O)[C@H](Cc2c[nH]c3ccccc23)NC(=O)[C@H](CC(N)=O)NC(=O)[C@H](CCC(=O)O)NC1=O [compound 273, Ac-W-T-I-C(3)-Glu-N-W-Glu-D-C(3)-W-P-[D-Lys(DOTA)]-NH2] (Ac-WTICENWEDCWP[dK](DOTA)-NH2; disulfide 4-10)
1 to 10 nM	CC[C@H](C)[C@H](NC(=O)[C@@H](NC(=O)[C@H](Cc1c[nH]c2ccccc12)NC(C)=O)[C@@H](C)O)C(=O)N[C@H]1CSSC[C@@H](C(=O)N[C@@H](Cc2c[nH]c3ccccc23)C(=O)N2CCC[C@H]2C(=O)N[C@H](CCCCNC(=O)CN2CCN(CC(=O)O)CCN(CC(=O)O)CCN(CC(=O)O)CC2)C(N)=O)NC(=O)[C@H](CC(=O)O)NC(=O)[C@H](CCC(=O)O)NC(=O)[C@H](Cc2c[nH]c3ccccc23)NC(=O)[C@H](CC(N)=O)NC(=O)[C@H](CC(N)=O)NC1=O [compound 274, Ac-W-T-I-C(3)-N-N-W-Glu-D-C(3)-W-P-[D-Lys(DOTA)]-NH2] (Ac-WTICNNWEDCWP[dK](DOTA)-NH2; disulfide 4-10)
1 to 10 nM	CC[C@H](C)[C@H](NC(=O)[C@@H](NC(=O)[C@H](Cc1c[nH]c2ccccc12)NC(C)=O)[C@@H](C)O)C(=O)N[C@H]1CSSC[C@@H](C(=O)N[C@@H](Cc2c[nH]c3ccccc23)C(=O)N2CCC[C@H]2C(=O)N[C@H](CCCCNC(=O)CN2CCN(CC(=O)O)CCN(CC(=O)O)CCN(CC(=O)O)CC2)C(N)=O)NC(=O)[C@H](CC(=O)O)NC(=O)[C@H](CCC(=O)O)NC(=O)[C@H](Cc2c[nH]c3ccccc23)NC(=O)[C@H](CCC(=O)O)NC(=O)[C@H](CCC(=O)O)NC1=O [compound 275, Ac-W-T-I-C(3)-Glu-Glu-W-Glu-D-C(3)-W-P-[D-Lys(DOTA)]-NH2] (Ac-WTICEEWEDCWP[dK](DOTA)-NH2; disulfide 4-10)
10 to 100 nM	CC[C@H](C)[C@H](NC(=O)[C@@H](NC(=O)[C@H](Cc1c[nH]c2ccccc12)NC(C)=O)[C@@H](C)O)C(=O)N[C@H]1CSSC[C@@H](C(=O)N[C@@H](Cc2c[nH]c3ccccc23)C(=O)N2CCC[C@H]2C(=O)N[C@H](CCCCNC(=O)CN2CCN(CC(=O)O)CCN(CC(=O)O)CCN(CC(=O)O)CC2)C(N)=O)NC(=O)[C@H](CC(=O)O)NC(=O)[C@H](CCC(=O)O)NC(=O)[C@H](Cc2c[nH]c3ccccc23)NC(=O)[C@H](CCC(=O)O)NC(=O)[C@H](CC(N)=O)NC1=O [compound 276, Ac-W-T-I-C(3)-N-Glu-W-Glu-D-C(3)-W-P-[D-Lys(DOTA)]-NH2] (Ac-WTICNEWEDCWP[dK](DOTA)-NH2; disulfide 4-10)
< 1 nM	CC[C@H](C)[C@H](NC(=O)[C@@H](NC(=O)[C@H](Cc1c[nH]c2ccccc12)NC(C)=O)[C@@H](C)O)C(=O)N[C@H]1CSSC[C@@H](C(=O)N[C@@H](Cc2c[nH]c3ccccc23)C(=O)N2CCC[C@H]2C(=O)N[C@H](CCCCNC(=O)CN2CCN(CC(=O)O)CCN(CC(=O)O)CCN(CC(=O)O)CC2)C(N)=O)NC(=O)[C@H](CC(=O)O)NC(=O)[C@H](Cc2cnc[nH]2)NC(=O)[C@H](Cc2c[nH]c3ccccc23)NC(=O)[C@H](CC(N)=O)NC(=O)[C@H](CCC(=O)O)NC1=O [compound 277, Ac-W-T-I-C(3)-Glu-N-W-H-D-C(3)-W-P-[D-Lys(DOTA)]-NH2] (Ac-WTICENWHDCWP[dK](DOTA)-NH2; disulfide 4-10)
1 to 10 nM	CC[C@H](C)[C@H](NC(=O)[C@@H](NC(=O)[C@H](Cc1c[nH]c2ccccc12)NC(C)=O)[C@@H](C)O)C(=O)N[C@H]1CSSC[C@@H](C(=O)N[C@@H](Cc2c[nH]c3ccccc23)C(=O)N2CCC[C@H]2C(=O)N[C@H](CCCCNC(=O)CN2CCN(CC(=O)O)CCN(CC(=O)O)CCN(CC(=O)O)CC2)C(N)=O)NC(=O)[C@H](CC(=O)O)NC(=O)[C@H](Cc2cnc[nH]2)NC(=O)[C@H](Cc2c[nH]c3ccccc23)NC(=O)[C@H](CCC(=O)O)NC(=O)[C@H](CCC(=O)O)NC1=O [compound 278, Ac-W-T-I-C(3)-Glu-Glu-W-H-D-C(3)-W-P-[D-Lys(DOTA)]-NH2] (Ac-WTICEEWHDCWP[dK](DOTA)-NH2; disulfide 4-10)
1 to 10 nM	CC[C@H](C)[C@H](NC(=O)[C@@H](NC(=O)[C@H](Cc1c[nH]c2ccccc12)NC(C)=O)[C@@H](C)O)C(=O)N[C@H]1CSSC[C@@H](C(=O)N[C@@H](Cc2c[nH]c3ccccc23)C(=O)N2CCC[C@H]2C(=O)N[C@H](CCCCNC(=O)CN2CCN(CC(=O)O)CCN(CC(=O)O)CCN(CC(=O)O)CC2)C(N)=O)NC(=O)[C@H](CC(=O)O)NC(=O)[C@H](Cc2cnc[nH]2)NC(=O)[C@H](Cc2c[nH]c3ccccc23)NC(=O)[C@H](CCC(=O)O)NC(=O)[C@H](CC(N)=O)NC1=O [compound 279, Ac-W-T-I-C(3)-N-Glu-W-H-D-C(3)-W-P-[D-Lys(DOTA)]-NH2] (Ac-WTICNEWHDCWP[dK](DOTA)-NH2; disulfide 4-10)
